The target in this assay is T1, Ketohexokinase (Human, UniProt P50053).
T1 sequence (P50053 whole entry): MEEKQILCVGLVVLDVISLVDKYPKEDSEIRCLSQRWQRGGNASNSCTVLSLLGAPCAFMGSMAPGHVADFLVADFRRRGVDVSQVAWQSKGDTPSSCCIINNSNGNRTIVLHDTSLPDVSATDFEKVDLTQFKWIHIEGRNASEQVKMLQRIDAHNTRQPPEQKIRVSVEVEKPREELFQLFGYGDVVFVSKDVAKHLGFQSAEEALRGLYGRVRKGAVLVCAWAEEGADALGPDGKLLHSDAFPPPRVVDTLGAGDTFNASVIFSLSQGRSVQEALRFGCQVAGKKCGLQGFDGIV
The assay is described as follows: Ketohexokinase Assay (KHK Assay). Here is the method: a) Kinase Reaction1. preparation of Dilution Buffer containing 50 mM hydroxyethylpiperazine […] (Hepes), 140 mM KCl, 3.5 mM MgCl2, and 0.01% bovine serum albumin (BSA), pH 7.4.2. A working solution of ketohexokinase at 2.5 times concentration was prepared with Dilution Buffer, with 50 nM ketohexokinase and 12.5 mM fructose.3. A working solution of adenosine triphosphate (ATP) at 2.5 times concentration was prepared with Dilution Buffer, with a concentration of 250 μM.4. Each compound was diluted starting at a concentration of 500 μM, 3-fold diluted for 9 concentration points. The final concentration of the compound in the reaction system started from 10 μM and the final concentration of dimethyl sulfoxide (DMSO) was 2%.5. A 96-well plate was prepared as a reaction plate, and was incubated at room temperature for 5 min after adding 6 μL ketohexokinase working solution at 2.5 times concentration to each well and further adding 3 μL compound working solution to each well.6. The first well of each row was a positive control for a compound, i.e. the same volume of the buffer was added to replace the compound […]. The last well was a negative control for the compound, i.e. the same volume of Dilution Buffer was added instead of the compound.7. 6 μL ATP working solution was added to each well in a 96-well reaction plate to initiate the kinase reaction. The kinase reaction was incubated in a constant temperature heater at 28° C. for 1 h.b) ADP-Glo assay1. A384 plate was prepared as a detection plate, and firstly 5 μL ADP-Glo reagent was added.2. 5 μL kinase reaction mixture from the reaction plate was added to each well and incubated in a constant temperature heater at 28° C. for 30 min.3. 10 μL kinase detection reagent was added to each well and incubated in a constant temperature heater at 28° C. for 30 min.4. The detection plate was placed in an EnVision multilabel reader to read the chemiluminescent signal.
For the compound `C[C@H]1CCN1c1nc(Nc2ccc(C(=O)O)c(C(F)(F)F)c2)c2ccsc2n1` [US12534477, Compound WX013], the IC50 (in general, the concentration that gives 50% inhibition) was 17 nM.
Consider `C[C@H]1CCN1c1nc(N2CC3(C[C@@H]3C(=O)O)C2)c2c(n1)C(F)(F)CC2` [US12534477, Compound WX042], for which the IC50 was determined as 21 nM.
For the compound `C[C@H]1CCN1c1nc(N2CC3(C[C@H]3C(=O)O)C2)c2c(n1)C(F)(F)CC2` [US12534477, Compound WX043], half-maximal inhibition (IC50) required 28 nM.
As for `C[C@H]1CCN1c1nc(N2CC3(CC3C(=O)O)C2)c2c(n1)C(F)(F)CC2` (some centres undefined) [US12534477, Compound WX035], the figure is 36 nM.

These data come from BindingDB's records for patent US12534477 (Hangzhou Zhongmeihuadong Pharmaceutical, 2026).
